From patent publication US20210145716A9, “COMPOSITION FOR HAIR FRIZZ REDUCTION” (The Procter & Gamble Company, priority 2015, published 2021) come the findings set out here.

The nature of this assay: Expert rating of hair switches for frizz, clean feel and greasy feel. The note with it: 1% in ethanol/water leave-on, pH 4.2. Here is the method: Additional leave-on treatment compositions are prepared (Tables 1 and 2) according to the procedure described above, which are used to treat hair switches using the procedure described above (amount of 0.10 g of composition per g of hair). The switch is kept at high humidity (above 85%) for 2 hours. Then, ten experts are asked to rate each hair switch in terms of frizz, clean feel, and greasy feel, based on a 5 point scale, 5 being the highest and 1 being the lowest rating. Acceptable values are: • For frizz, less than 2 (lower number corresponds to less frizz); • For no greasy feel less than 3, (lower number corresponds to less greasy feel), and • For clean feel greater than 3 (higher number corresponds to cleaner feel).
`O=C(O)c1ccc(O)cc1O` [2,4-Dihydroxybenzoic acid]: the “Hair switch rating summary (in words)” value is “fizz protection with clean feel and without greasy feel negative”. With `CCCCCCCCC(CO)CCCCCC` (stereo not shown) [2-Hexyl-1-decanol], the “Hair switch rating summary (in words)” value is “frizz protection with clean feel and without greasy feel negative”.

In the case of `O=C(OCCO)c1ccccc1O` [2-Hydroxyethyl salicylate], the “Hair switch rating summary (in words)” value was “frizz protection with clean feel and without greasy feel negative”. As for `O=S(=O)(O)c1ccc(O)cc1` [4-Hydroxybenzenesulphonic acid], the “Hair switch rating summary (in words)” value is “fizz protection with clean feel and without greasy feel negative”. With `O=C(O)c1cc(Cl)ccc1O` [5-Chlorosalicylic acid], the “Hair switch rating summary (in words)” value is “fizz protection with clean feel and without greasy feel negative”. The value for `CC(C)CCCCCCCCCCCCCCCOC(=O)CCCCCCCCCCCCCCC(C)C` [Isostearyl isostearate] was “frizz protection with clean feel and without greasy feel negative”; that for `O=C(O)c1ccccc1O` [Salicylic acid] was “fizz protection with clean feel and without greasy feel negative”.
